According to the NIST ThermoML archive (doi:10.1016/j.fluid.2007.07.016):
Numbers after ± are expanded uncertainties.

Test: xn = mol fraction of the nth substance listed
Conditions: 101 kPa, Liquid; for viscosity: Capillary tube (Ostwald / Ubbelohde) method; for speed of sound: Linear variable-path acoustic interferometer

Cc1ccc(C)cc1 [1,4-dimethylbenzene] + C1CCOC1
Conditions | speed of sound, 288.15 K [m/s] | speed of sound, 298.15 K [m/s] | speed of sound, 308.15 K [m/s] | speed of sound, 318.15 K [m/s] | viscosity, 288.15 K [mPa·s] | viscosity, 298.15 K [mPa·s] | viscosity, 308.15 K [mPa·s] | viscosity, 318.15 K [mPa·s]
x2 = 0 | 1357.5 ± 1.6 | 1316.4 ± 1.6 | 1268 ± 1.6 | 1230.3 ± 1.5 | 0.7084 ± 0.0051 | 0.611 ± 0.0045 | 0.5501 ± 0.004 | 0.4912 ± 0.0037
x2 = 0.084 | 1356 ± 1.6 | 1314.1 ± 1.6 | 1265.7 ± 1.6 | 1227.2 ± 1.5 | 0.6971 ± 0.005 | 0.6047 ± 0.0044 | 0.5453 ± 0.004 | 0.4891 ± 0.0037
x2 = 0.1716 | 1354.2 ± 1.6 | 1311.7 ± 1.6 | 1263.2 ± 1.6 | 1224 ± 1.5 | 0.6842 ± 0.0049 | 0.5954 ± 0.0044 | 0.5385 ± 0.0039 | 0.4849 ± 0.0036
x2 = 0.2322 | 1353.1 ± 1.6 | 1310.1 ± 1.6 | 1261.6 ± 1.6 | 1221.9 ± 1.5 | 0.6755 ± 0.0049 | 0.5895 ± 0.0043 | 0.5339 ± 0.0039 | 0.4819 ± 0.0036
x2 = 0.2934 | 1351.7 ± 1.6 | 1308.3 ± 1.6 | 1259.9 ± 1.6 | 1219.6 ± 1.5 | 0.6656 ± 0.0048 | 0.5825 ± 0.0043 | 0.528 ± 0.0039 | 0.4777 ± 0.0036
x2 = 0.3548 | 1350.2 ± 1.6 | 1306.5 ± 1.6 | 1258.1 ± 1.6 | 1217.3 ± 1.5 | 0.6552 ± 0.0047 | 0.5748 ± 0.0042 | 0.5214 ± 0.0038 | 0.4727 ± 0.0036
x2 = 0.4284 | 1348.1 ± 1.6 | 1304 ± 1.6 | 1255.7 ± 1.6 | 1214.5 ± 1.5 | 0.642 ± 0.0046 | 0.5648 ± 0.0042 | 0.5127 ± 0.0038 | 0.4658 ± 0.0035
x2 = 0.4896 | 1346.2 ± 1.6 | 1301.8 ± 1.6 | 1253.7 ± 1.6 | 1212 ± 1.5 | 0.6304 ± 0.0046 | 0.5558 ± 0.0041 | 0.5047 ± 0.0037 | 0.4592 ± 0.0035
x2 = 0.5518 | 1344.1 ± 1.6 | 1299.4 ± 1.6 | 1251.5 ± 1.6 | 1209.3 ± 1.5 | 0.6181 ± 0.0045 | 0.5461 ± 0.004 | 0.4959 ± 0.0037 | 0.4518 ± 0.0035
x2 = 0.6201 | 1341.5 ± 1.6 | 1296.6 ± 1.6 | 1248.8 ± 1.6 | 1206.2 ± 1.5 | 0.6039 ± 0.0044 | 0.5347 ± 0.004 | 0.4854 ± 0.0036 | 0.4428 ± 0.0034
x2 = 0.6825 | 1338.9 ± 1.6 | 1293.7 ± 1.6 | 1246.2 ± 1.6 | 1203.3 ± 1.5 | 0.5904 ± 0.0043 | 0.5237 ± 0.0039 | 0.4751 ± 0.0036 | 0.4337 ± 0.0034
x2 = 0.7414 | 1336.3 ± 1.6 | 1290.9 ± 1.6 | 1243.6 ± 1.6 | 1200.4 ± 1.5 | 0.5767 ± 0.0042 | 0.5127 ± 0.0038 | 0.4647 ± 0.0035 | 0.4245 ± 0.0033
x2 = 0.8102 | 1333.1 ± 1.6 | 1287.6 ± 1.6 | 1240.6 ± 1.6 | 1197 ± 1.5 | 0.5609 ± 0.0041 | 0.4991 ± 0.0038 | 0.4518 ± 0.0035 | 0.4128 ± 0.0033
x2 = 0.8756 | 1329.8 ± 1.6 | 1284.3 ± 1.6 | 1237.5 ± 1.6 | 1193.7 ± 1.5 | 0.545 ± 0.004 | 0.4855 ± 0.0037 | 0.4388 ± 0.0034 | 0.4009 ± 0.0032
x2 = 0.9409 | 1326.4 ± 1.6 | 1280.8 ± 1.6 | 1234.4 ± 1.6 | 1190.4 ± 1.5 | 0.5284 ± 0.0039 | 0.4713 ± 0.0036 | 0.425 ± 0.0034 | 0.3881 ± 0.0032

C1CCOC1 [tetrahydrofuran] + Cc1ccccc1
Conditions | speed of sound, 288.15 K [m/s] | speed of sound, 298.15 K [m/s] | speed of sound, 308.15 K [m/s] | speed of sound, 318.15 K [m/s] | viscosity, 288.15 K [mPa·s] | viscosity, 298.15 K [mPa·s] | viscosity, 308.15 K [mPa·s] | viscosity, 318.15 K [mPa·s]
x1 = 0.0718 | 1357.7 ± 1.6 | 1309.4 ± 1.6 | 1264.6 ± 1.5 | 1219.3 ± 1.5 | 0.6406 ± 0.0046 | 0.5513 ± 0.004 | 0.5013 ± 0.0037 | 0.4399 ± 0.0035
x1 = 0.1498 | 1356.3 ± 1.6 | 1307.9 ± 1.6 | 1262.7 ± 1.5 | 1217.3 ± 1.5 | 0.635 ± 0.0046 | 0.5491 ± 0.004 | 0.5003 ± 0.0037 | 0.4415 ± 0.0035
x1 = 0.2283 | 1354.6 ± 1.6 | 1306.2 ± 1.6 | 1260.7 ± 1.5 | 1215.2 ± 1.5 | 0.6285 ± 0.0046 | 0.5459 ± 0.004 | 0.498 ± 0.0037 | 0.4421 ± 0.0034
x1 = 0.2902 | 1353.1 ± 1.6 | 1304.8 ± 1.6 | 1259.1 ± 1.5 | 1213.5 ± 1.5 | 0.6231 ± 0.0045 | 0.5431 ± 0.004 | 0.4956 ± 0.0037 | 0.4418 ± 0.0034
x1 = 0.3452 | 1351.7 ± 1.6 | 1303.4 ± 1.6 | 1257.6 ± 1.5 | 1212 ± 1.5 | 0.6176 ± 0.0045 | 0.5398 ± 0.004 | 0.4929 ± 0.0036 | 0.4408 ± 0.0034
x1 = 0.4005 | 1350.1 ± 1.6 | 1302 ± 1.6 | 1255.9 ± 1.5 | 1210.4 ± 1.5 | 0.6113 ± 0.0044 | 0.5357 ± 0.0039 | 0.4894 ± 0.0036 | 0.4388 ± 0.0034
x1 = 0.4694 | 1347.8 ± 1.6 | 1299.9 ± 1.6 | 1253.7 ± 1.6 | 1208.2 ± 1.5 | 0.6027 ± 0.0044 | 0.5298 ± 0.0039 | 0.484 ± 0.0036 | 0.4352 ± 0.0034
x1 = 0.5368 | 1345.4 ± 1.6 | 1297.7 ± 1.6 | 1251.4 ± 1.6 | 1205.9 ± 1.5 | 0.5934 ± 0.0043 | 0.523 ± 0.0039 | 0.4775 ± 0.0036 | 0.4307 ± 0.0034
x1 = 0.6067 | 1342.8 ± 1.6 | 1295.2 ± 1.6 | 1248.8 ± 1.6 | 1203.4 ± 1.5 | 0.5834 ± 0.0043 | 0.5155 ± 0.0038 | 0.4704 ± 0.0035 | 0.4253 ± 0.0033
x1 = 0.6704 | 1340.1 ± 1.6 | 1292.8 ± 1.6 | 1246.3 ± 1.6 | 1200.9 ± 1.5 | 0.5736 ± 0.0042 | 0.508 ± 0.0038 | 0.463 ± 0.0035 | 0.4196 ± 0.0033
x1 = 0.7378 | 1337 ± 1.6 | 1289.9 ± 1.6 | 1243.5 ± 1.6 | 1198.3 ± 1.5 | 0.5626 ± 0.0041 | 0.4993 ± 0.0037 | 0.4544 ± 0.0035 | 0.4125 ± 0.0033
x1 = 0.8018 | 1333.8 ± 1.6 | 1287 ± 1.6 | 1240.7 ± 1.6 | 1195.7 ± 1.5 | 0.5515 ± 0.0041 | 0.4903 ± 0.0037 | 0.4453 ± 0.0034 | 0.405 ± 0.0032
x1 = 0.8714 | 1330.2 ± 1.6 | 1284 ± 1.6 | 1237.6 ± 1.6 | 1192.8 ± 1.5 | 0.5387 ± 0.004 | 0.4797 ± 0.0036 | 0.4346 ± 0.0034 | 0.3957 ± 0.0032
x1 = 0.9368 | 1326.6 ± 1.6 | 1280.7 ± 1.6 | 1234.5 ± 1.6 | 1190 ± 1.5 | 0.5259 ± 0.0039 | 0.469 ± 0.0036 | 0.4237 ± 0.0033 | 0.3861 ± 0.0032
x1 = 1 | 1323.1 ± 1.6 | 1277.6 ± 1.6 | 1231.5 ± 1.6 | 1187.2 ± 1.5 | 0.5129 ± 0.0039 | 0.458 ± 0.0036 | 0.4125 ± 0.0033 | 0.3762 ± 0.0031
